Reference: patent EP0818453B1, “Benzothiophene compounds and methods of use” (ELI LILLY AND COMPANY, priority 1996, dated 1998)
Marks after values point to notes of the source that are not given here.

System: ovariectomized rats
Experiment: Ovariectomized rat model of postmenopausal hyperlipidemia (serum cholesterol, uterine weight, uterine eosinophil peroxidase)
Format: in vivo
Conditions: for Serum Cholest. % Dec.: decrease versus ovariectomized controls; for Uterine Eosinophil (Vmax): eosinophil peroxidase, Vmaximum; for Uterine Weight % Inc: increase versus ovariectomized controls
Procedure: Experimental models of postmenopausal hyperlipidemia are known in the art. Germane to this invention is the ovariectomized rat model which is detailed in U.S. 5,464,845.
Data presented in Table 1 show comparative results among ovariectomized rats, rats treated with 17-a-ethynyl estradiol(EE2), and rats treated with certain compounds of this invention. […] This uterine response to estrogen is well recognized in the art.
As expressed in the data below, estrogenicity also was assessed by evaluating the response of eosinophil infiltration into the uterus.
The data presented in Table 1 reflect the response per treatment group.

SMILES	Serum Cholest. % Dec. (0.01 mg/kg PO)	Serum Cholest. % Dec. (0.1 mg/kg PO)	Serum Cholest. % Dec. (1.0 mg/kg PO)	Serum Cholest. % Dec. (0.001 mg/kg PO)	Uterine Eosinophil (Vmax) (0.001 mg/kg PO)	Uterine Weight % Inc (0.001 mg/kg PO)	Uterine Eosinophil (Vmax) (0.01 mg/kg PO)	Uterine Weight % Inc (0.01 mg/kg PO)	Uterine Eosinophil (Vmax) (0.1 mg/kg PO)	Uterine Weight % Inc (0.1 mg/kg PO)	uterine weight (0.1 mg/kg/day orally, versus ovariectomized animals, result in words)	serum cholesterol (orally administered at 0.1 mg/kg/day, result in words)	eosinophil infiltration into the uterus (stromal layer of ovariectomized rat uteri, result in words)	Serum Cholest. % Dec. (10.0 mg/kg PO)
Cl.O=C(c1ccc(-c2ccc(OCCN3CCCCC3)cc2)cc1)c1c(-c2ccc(O)cc2)sc2cc(O)ccc12 [Compound 5, [2-(4-Hydroxyphenyl)-6-hydroxybenzo[b]thien-3-yl] [4'-[2-(1-piperidinyl)ethoxy]biphenyl-4-yl]methanone hydrochloride]	15.9* %	66.7* %	87.3* %											
C#C[C@]1(O)CC[C@H]2[C@@H]3CCc4cc(O)ccc4[C@H]3CC[C@@]21C [EE2, 17-a-ethynyl estradiol]	12%	77.7* %		-1.9%	20*	35.8* %	25.6*	61.0* %	276.6*	129.6* %	substantially greater than the uterine weight of the ovariectomized animals	caused a decrease in serum cholesterol	substantial and expected increase in eosinophil infiltration	
C[C@]12CC[C@@H]3c4ccc(O)cc4CC[C@H]3[C@@H]1CC[C@@H]2O [17-b-Estradiol]	57.5* %	58.7* %		67.6* %										
O=C(c1ccc2cc(OCCN3CCCCC3)ccc2c1)c1c(-c2ccc(O)cc2)sc2cc(O)ccc12 [Compound 10, [2-(4-Hydroxyphenyl)-6-hydroxybenzo[b]thien-3-yl][6-[2-(1-piperidinyl)ethoxy]naphth-2-yl]methanone]		39.4* %	59.3* %											69.1* %
